Data from patent US7417156B2, “Orally active, antimalarial, anticancer, artemisinin-derived trioxane dimers” (Johns Hopkins University, priority 2002, dated 2008).
Where two headings read alike, the source gives them in different places.

Columns and labels:
U251 = assay: NCI 60 cell line panel screen (SRB); format: cell-based, human
[1] = system: chloroquine-sensitive P. falciparum (NF54); assay: Antimalarial activity in vitro, [3H]hypoxanthine incorporation; format: cell-based
SF-268 = assay: NCI 60 cell line panel screen (SRB); format: cell-based, human
CAKI-1 = assay: NCI 60 cell line panel screen (SRB); format: cell-based, human
MALME-3M = assay: NCI 60 cell line panel screen (SRB); format: cell-based, human
KM12 = assay: NCI 60 cell line panel screen (SRB); format: cell-based, human
NCI-H460 = assay: NCI 60 cell line panel screen (SRB); format: cell-based, human
60 cell line panel = format: cell-based
MCF7 = assay: NCI 60 cell line panel screen (SRB); format: cell-based, human
OVCAR-3 = assay: NCI 60 cell line panel screen (SRB); format: cell-based, human
HOP-92 = assay: NCI 60 cell line panel screen (SRB); format: cell-based, human
RPMI-8226 = assay: NCI 60 cell line panel screen (SRB); format: cell-based, human
COLO 205 = assay: NCI 60 cell line panel screen (SRB); format: cell-based, human
PC-3 = assay: NCI 60 cell line panel screen (SRB); format: cell-based, human
HCT-15 = assay: NCI 60 cell line panel screen (SRB); format: cell-based, human
NCI-H23 = assay: NCI 60 cell line panel screen (SRB); format: cell-based, human
SK-MEL-2 = assay: NCI 60 cell line panel screen (SRB); format: cell-based, human
SK-MEL-28 = assay: NCI 60 cell line panel screen (SRB); format: cell-based, human
RXF 393 = assay: NCI 60 cell line panel screen (SRB); format: cell-based, human
HCT-116 = assay: NCI 60 cell line panel screen (SRB); format: cell-based, human
M14 = assay: NCI 60 cell line panel screen (SRB); format: cell-based, human
NCI/ADR-RES = assay: NCI 60 cell line panel screen (SRB); format: cell-based, human
OVCAR-8 = assay: NCI 60 cell line panel screen (SRB); format: cell-based, human
CCRF-CEM = assay: NCI 60 cell line panel screen (SRB); format: cell-based, human; conditions: CCRF-CEM (Leukemia)
[2] = mean value over the 60 cell line panel

CC1CCC2C(C)C(CC(COC(=O)c3cc[n+]([O-])cc3)CC3OC4OC5(C)CCC6C(C)CCC(C3C)C46OO5)OC3OC4(C)CCC1C32OO4 (stereo not drawn) [Compound 13, bis-trioxane primary alcohol isonicotinate N-oxide]
Log10GI50 (U251; CNS Cancer, U251): <−8.30
Log10LC50 (U251; U251 (CNS Cancer), LC50: PG=−50): −4.69 log10M
Log10TGI50 (U251; U251 (CNS Cancer), TGI: PG=0): −5.08 log10M
IC50 [1]: sub-nanomolar
IC50 ([1]; Table I, NF54 strain, read-out: IC50): 0.53 nM
Log10GI50 (SF-268; CNS Cancer, SF-268): −5.29
Log10LC50 (SF-268; SF-268 (CNS Cancer), LC50: PG=−50): −4.31 log10M
Log10TGI50 (SF-268; SF-268 (CNS Cancer), TGI: PG=0): −4.80 log10M
Log10LC50 (CAKI-1; CAKI-1 (Renal Cancer), LC50: PG=−50): −4.66 log10M
Log10TGI50 (CAKI-1; CAKI-1 (Renal Cancer), TGI: PG=0): −5.11 log10M
Log10GI50 (CAKI-1; Renal Cancer, CAKI-1): −7.36
Log10LC50 (MALME-3M; MALME-3M (Melanoma), LC50: PG=−50): −4.66 log10M
Log10TGI50 (MALME-3M; MALME-3M (Melanoma), TGI: PG=0): <−8.30 log10M
Log10GI50 (MALME-3M; Melanoma, MALME-3M): <−8.30
Log10GI50 (KM12; Colon Cancer, KM12): <−8.30
Log10LC50 (KM12; KM12 (Colon Cancer), LC50: PG=−50): −4.37 log10M
Log10TGI50 (KM12; KM12 (Colon Cancer), TGI: PG=0): −5.04 log10M
Log10LC50 (NCI-H460; NCI-H460 (Non-Small Cell Lung Cancer), LC50: PG=−50): −4.36 log10M
Log10TGI50 (NCI-H460; NCI-H460 (Non-Small Cell Lung Cancer), TGI: PG=0): −4.92 log10M
Log10GI50 (NCI-H460; Non-Small Cell Lung Cancer, NCI-H460): <−8.30
Log10GI50 Delta (60 cell line panel): 0.92
Log10GI50 Range (60 cell line panel): 3.22
Log10LC50 Delta (60 cell line panel; 60 cell line panel): 1.27
Log10LC50 Range (60 cell line panel; 60 cell line panel): 1.49
Log10TGI50 Delta (60 cell line panel; 60 cell line panel): 3.15
Log10TGI50 Range (60 cell line panel; 60 cell line panel): 4.00
Log10GI50 MG MID (60 cell line panel; mean over panel): −7.38
Log10LC50 MG MID (60 cell line panel; [2]): −4.51 log10M
Log10TGI50 MG MID (60 cell line panel; [2]): −5.15 log10M
Log10GI50 (MCF7; Breast Cancer, MCF7): <−8.30
Log10LC50 (MCF7; MCF7 (Breast Cancer), LC50: PG=−50): −4.44 log10M
Log10TGI50 (MCF7; MCF7 (Breast Cancer), TGI: PG=0): −5.03 log10M
Log10LC50 (OVCAR-3; OVCAR-3 (Ovarian Cancer), LC50: PG=−50): −4.51 log10M
Log10TGI50 (OVCAR-3; OVCAR-3 (Ovarian Cancer), TGI: PG=0): −4.98 log10M
Log10GI50 (OVCAR-3; Ovarian Cancer, OVCAR-3): −7.75
Log10LC50 (HOP-92; HOP-92 (Non-Small Cell Lung Cancer), LC50: PG=−50): −4.74 log10M
Log10TGI50 (HOP-92; HOP-92 (Non-Small Cell Lung Cancer), TGI: PG=0): −5.27 log10M
Log10GI50 (HOP-92; Non-Small Cell Lung Cancer, HOP-92): −8.04
Log10GI50 (RPMI-8226; Leukemia, RPMI-8226): <−8.30
Log10LC50 (RPMI-8226; RPMI-8226 (Leukemia), LC50: PG=−50): >−4.30 log10M
Log10TGI50 (RPMI-8226; RPMI-8226 (Leukemia), TGI: PG=0): >−4.30 log10M
Log10LC50 (COLO 205; COLO 205 (Colon Cancer), LC50: PG=−50): >−4.30 log10M
Log10TGI50 (COLO 205; COLO 205 (Colon Cancer), TGI: PG=0): >−4.30 log10M
Log10GI50 (COLO 205; Colon Cancer, COLO 205): <−8.30
Log10LC50 (PC-3; PC-3 (Prostate Cancer), LC50: PG=−50): −4.63 log10M
Log10TGI50 (PC-3; PC-3 (Prostate Cancer), TGI: PG=0): −5.11 log10M
Log10GI50 (PC-3; Prostate Cancer, PC-3): <−8.30
Log10GI50 (HCT-15; Colon Cancer, HCT-15): <−8.30
Log10LC50 (HCT-15; HCT-15 (Colon Cancer), LC50: PG=−50): −4.81 log10M
Log10TGI50 (HCT-15; HCT-15 (Colon Cancer), TGI: PG=0): −8.19 log10M
Log10LC50 (NCI-H23; NCI-H23 (Non-Small Cell Lung Cancer), LC50: PG=−50): −4.62 log10M
Log10TGI50 (NCI-H23; NCI-H23 (Non-Small Cell Lung Cancer), TGI: PG=0): −5.17 log10M
Log10GI50 (NCI-H23; Non-Small Cell Lung Cancer, NCI-H23): <−8.30
Log10GI50 (SK-MEL-2; Melanoma, SK-MEL-2): −5.12
Log10LC50 (SK-MEL-2; SK-MEL2 (Melanoma), LC50: PG=−50): >−4.30 log10M
Log10TGI50 (SK-MEL-2; SK-MEL-2 (Melanoma), TGI: PG=0): >−4.30 log10M
Log10GI50 (SK-MEL-28; Melanoma, SK-MEL-28): −5.13
Log10LC50 (SK-MEL-28; SK-MEL-28 (Melanoma), LC50: PG=−50): −4.34 log10M
Log10TGI50 (SK-MEL-28; SK-MEL-28 (Melanoma), TGI: PG=0): −4.73 log10M
Log10LC50 (RXF 393; RXF 393 (Renal Cancer), LC50: PG=−50): >−4.30 log10M
Log10TGI50 (RXF 393; RXF 393 (Renal Cancer), TGI: PG=0): −4.69 log10M
Log10GI50 (RXF 393; Renal Cancer, RXF 393): −5.20
Log10GI50 (HCT-116; Colon Cancer, HCT-116): <−8.30
Log10LC50 (HCT-116; HCT-116 (Colon Cancer), LC50: PG=−50): >−4.30 log10M
Log10TGI50 (HCT-116; HCT-116 (Colon Cancer), TGI: PG=0): −5.06 log10M
Log10LC50 (M14; M14 (Melanoma), LC50: PG=−50): >−4.30 log10M
Log10TGI50 (M14; M-14 (Melanoma), TGI: PG=0): −4.75 log10M
Log10GI50 (M14; Melanoma, M14): −5.81
Log10GI50 (NCI/ADR-RES; Breast Cancer, NCI/ADR-RES): −7.60
Log10LC50 (NCI/ADR-RES; NCI/ADR-RES (Breast Cancer), LC50: PG=−50): −4.65 log10M
Log10TGI50 (NCI/ADR-RES; NCI/ADR-RES (Breast Cancer), TGI: PG=0): −5.18 log10M
Log10LC50 (OVCAR-8; OVCAR-8 (Ovarian Cancer), LC50: PG=−50): >−4.30 log10M
Log10GI50 (OVCAR-8; Ovarian Cancer, OVCAR-8): −7.69
Log10LC50 (CCRF-CEM; LC50: PG=−50): >−4.30 log10M
Log10TGI50 (CCRF-CEM; TGI: PG=0): >−4.30 log10M
